According to the supplement of paper PMC10307832:

Experiments:
Assay in all cases: relative viability (nuclei count vs DMSO), 5 days (fraction); higher = more cells survive
[1] = compound: C1=CC=C(C(=C1)C2=CC=C(C=C2)C3=CSC4=C3C(=C(C(=O)N4)C#N)O)O + CC(=O)c1c(C)c2cnc(Nc3ccc(N4CCNCC4)cn3)nc2n(C2CCCC2)c1=O [Palbociclib] (partner 0.5 µM)
Summary of the method: (§1)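 Cells from lung cancer lines were seeded into 1536-well plates and, one day later, dosed by pin tool. Treatments were either a single drug or a fixed dose of an anchor drug with five library-drug doses (not always all listed) in √10 steps. After 5 days, nuclei were stained in a one-step fixation (final 0.05% Triton X-100, 1% formaldehyde, 1 ug/ml Hoechst) and counted on 4× images, and relative viability is the treated-to-vehicle nuclei ratio, as the median of duplicate plates.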

TGX 221 + Trametinib = compound: CC1=CN2C(=O)C=C(N=C2C(=C1)C(C)NC3=CC=CC=C3)N4CCOCC4 [TGX 221] + CC(=O)Nc1cccc(-n2c(=O)n(C3CC3)c(=O)c3c(Nc4ccc(I)cc4F)n(C)c(=O)c(C)c32)c1 [Trametinib] (partner 0.02 µM)
Summary of the method: as §1

TGX 221 + Alpelisib = compound: CC1=CN2C(=O)C=C(N=C2C(=C1)C(C)NC3=CC=CC=C3)N4CCOCC4 [TGX 221] + Cc1nc(NC(=O)N2CCC[C@H]2C(N)=O)sc1-c1ccnc(C(C)(C)C(F)(F)F)c1 [Alpelisib] (partner 2 µM)
Summary of the method: as §1

[2] = compound: O=C(CCCCCCNC(=O)c1cnc(N(c2ccccc2)c2ccccc2)nc1)NO [Ricolinostat] + CCNC(=O)c1noc(-c2cc(C(C)C)c(O)cc2O)c1-c1ccc(CN2CCOCC2)cc1 [Luminespib] (partner 0.01 µM)
Summary of the method: as §1

Cell Line | relative viability ([1]; first compound 0.08 µM) | relative viability ([1]; first compound 0.253 µM) | relative viability ([1]; first compound 0.8 µM) | relative viability ([1]; first compound 2.53 µM) | relative viability ([1]; first compound 8 µM) | relative viability (TGX 221 + Trametinib; first compound 0.08 µM) | relative viability (TGX 221 + Trametinib; first compound 0.253 µM) | relative viability (TGX 221 + Trametinib; first compound 0.8 µM) | relative viability (TGX 221 + Trametinib; first compound 2.53 µM) | relative viability (TGX 221 + Trametinib; first compound 8 µM) | relative viability (TGX 221 + Alpelisib; first compound 0.08 µM) | relative viability (TGX 221 + Alpelisib; first compound 0.253 µM) | relative viability (TGX 221 + Alpelisib; first compound 0.8 µM) | relative viability (TGX 221 + Alpelisib; first compound 2.53 µM) | relative viability (TGX 221 + Alpelisib; first compound 8 µM) | relative viability ([2]; first compound 0.08 µM) | relative viability ([2]; first compound 0.253 µM) | relative viability ([2]; first compound 0.8 µM) | relative viability ([2]; first compound 2.53 µM)
HCC-827 | 0.492 | 0.518 | 0.479 | 0.475 | 0.524 | 0.556 | 0.473 | 0.478 | 0.44 | 0.493 | 0.929 | 0.807 | 0.904 | 0.482 | 0.438 | 0.581 | 0.76 | 0.487 | 0.552
HOP-62 | 0.545 | 0.536 | 0.497 | 0.532 | 0.382 | 0.386 | 0.351 | 0.338 | 0.252 | 0.298 | 0.899 | 0.958 | 0.827 | 1.13 | 1.11 | 0.84 | 0.857 | 0.884 | 0.747
IA-LM | – | – | – | – | – | – | – | – | – | – | 0.753 | 0.818 | 0.792 | 0.614 | 0.589 | – | – | – | –
LC-2-ad | 0.416 | 0.406 | 0.461 | 0.499 | 0.441 | 0.846 | 0.906 | 0.927 | 0.885 | 0.858 | 0.81 | – | 0.722 | 0.645 | 0.62 | 0.8 | 0.987 | 0.98 | 0.869
LCLC-97TM1 | 0.24 | 0.233 | 0.268 | 0.26 | 0.204 | 0.178 | 0.172 | 0.22 | 0.187 | 0.185 | 0.261 | 0.246 | 0.287 | 0.199 | 0.214 | 0.651 | 0.752 | 0.565 | 0.561
LCLC-103H | 0.445 | 0.407 | 0.451 | 0.491 | 0.449 | 0.65 | 0.639 | 0.626 | 0.683 | 0.651 | 1.03 | 0.896 | 0.776 | 0.743 | 0.654 | 0.869 | 0.887 | 0.862 | 0.829
LK-2 | 0.515 | 0.749 | 0.629 | 0.913 | 0.517 | 0.725 | 0.716 | 0.847 | 0.823 | 0.749 | 1.02 | 1.05 | 0.959 | 0.665 | 1 | 0.18 | 0.191 | 0.168 | 0.177
LOU-NH91 | 0.501 | 0.542 | 0.535 | 0.544 | 0.534 | 0.818 | 0.741 | 0.756 | 0.774 | 0.709 | 0.69 | 0.706 | 0.682 | 0.697 | 0.575 | 0.322 | 0.371 | 0.347 | 0.313
LU99A | 0.389 | 0.371 | 0.44 | 0.469 | 0.392 | 0.507 | 0.479 | 0.557 | 0.505 | 0.493 | 0.524 | 0.443 | 0.494 | 0.513 | 0.57 | 0.254 | 0.224 | 0.239 | 0.25
LXF-289 | 0.612 | 0.595 | 0.681 | 0.629 | 0.675 | 0.67 | 0.757 | 0.708 | 0.674 | 0.744 | 0.948 | 0.979 | 0.947 | 0.898 | 0.898 | 0.579 | 0.655 | 0.692 | 0.672
NCI-H23 | 0.445 | 0.512 | 0.593 | 0.51 | 0.467 | 0.279 | 0.329 | 0.338 | 0.403 | 0.328 | 0.66 | 0.572 | 0.471 | 0.606 | 0.574 | – | 0.203 | 0.214 | 0.169
NCI-H322M | 0.461 | 0.468 | 0.467 | 0.483 | 0.49 | 0.47 | 0.488 | 0.508 | 0.504 | 0.5 | 0.8 | 0.64 | 0.64 | 0.687 | 0.505 | – | 0.974 | 0.988 | 1.09
NCI-H358 | 0.13 | 0.17 | 0.124 | 0.135 | 0.123 | 0.13 | 0.127 | 0.153 | 0.132 | 0.132 | 0.723 | 0.75 | 0.828 | 0.85 | 0.726 | – | 0.269 | 0.482 | 0.254
NCI-H522 | 0.943 | 1.06 | 0.916 | 0.944 | 0.881 | 0.658 | 0.822 | 0.719 | 0.623 | 0.661 | – | – | – | – | – | 1.39 | 1.01 | 1.28 | 1.19
NCI-H596 | – | – | – | – | – | 0.654 | 0.807 | 0.82 | 0.908 | 0.774 | 0.423 | 0.419 | 0.445 | 0.403 | 0.387 | 1.12 | 0.83 | 0.881 | 1.1
NCI-H1299 | – | – | – | – | – | – | – | – | – | – | 0.991 | 1.07 | 1.12 | 1.14 | 1.17 | – | – | – | –
NCI-H1563 | – | – | – | – | – | – | – | – | – | – | 0.834 | 0.777 | 0.658 | 0.607 | 0.594 | 0.553 | 0.502 | 0.508 | 0.525
NCI-H1623 | – | – | – | – | – | – | – | – | – | – | – | – | – | – | – | 0.481 | 0.517 | 0.541 | 0.523
NCI-H1648 | – | 0.282 | 0.319 | 0.261 | 0.274 | – | 0.403 | 0.569 | 0.435 | 0.471 | – | – | – | – | – | – | – | – | –
NCI-H1650 | 0.23 | 0.332 | 0.317 | 0.31 | 0.31 | 0.456 | 0.655 | 0.669 | 0.596 | 0.416 | – | – | – | – | – | 0.184 | 0.191 | 0.225 | 0.17
NCI-H1703 | – | – | – | – | – | – | – | – | – | – | 0.269 | 0.222 | 0.176 | 0.267 | 0.235 | – | – | – | –
NCI-H2342 | 0.538 | 0.513 | 0.538 | 0.488 | 0.529 | 0.814 | 0.763 | 0.8 | 0.632 | 0.93 | – | – | – | – | – | 0.541 | 0.78 | 0.835 | 0.762
SW 900 | – | 0.621 | 0.638 | 0.518 | 0.429 | – | 0.613 | 0.871 | 0.575 | 0.5 | – | – | – | – | – | 0.166 | 0.164 | 0.183 | 0.17
